# Experimental data: patent US9315544B2, “Method of treating eosinophilia by administering an immunomodulating peptide” (National Tsing Hua University, priority 2012, dated 2016)
# Legend:
# human CCL11 = test: CCL11 protein release from Beas-2B cells by ELISA; assay type: cell-based; settings: Beas-2B cells, 24 h
# Method: FIG. 2 illustrates CCL11 expression in CMP and ECP co-treated Beas-2B cells. Beas-2B cells were starved with serum free medium for 24 h, followed by stimulation with ECP (column 2). Cells were stimulated with PBS as negative control (column 1) and ECP in the absence of CMP (column 2) or presence of 1 μM (column 3), 2.5 μM (column 4), 5 μM (column 5), 10 μM (column 6) CMP at 37° C. for 24 h. CCL11 protein level was determined by ELISA kit employing CCL11 antibody. The data represented mean±SD (standard deviation) of at least three independent experiments. ***, p<0.001; **, p<0.01
# FIG. 3 illustrates CCL11 expression in CMP and IL-4 co-treated Beas-2B cells. Beas-2B cells were starved with serum free medium for 24 h, followed by stimulation with PBS (column 1) or 10 ng/mL IL-4 (column 2-7). Cells were stimulated with 10 ng/mL IL-4 in the absence […] or presence of 1 μM (column 3), 2.5 μM (column 4), 5 μM (column 5) and 10 μM (column 6) CMP at 37° C. for 24 h. CCL11 protein level was determined by ELISA kit employing CCL11 antibody. The data represented mean±SD (standard deviation) of at least three independent experiments. ***, p<0.001 (Stimulation with IL-4 compared with PBS treated Beas-2B cells). *, p<0.05 (Stimulation with indicated concentrations of CMP compared with IL-4 treated Beas-2B cells).
# CCL11 ELISA kit (R&D) is an in vitro enzyme-linked immunosorbent assay for quantitative determination of human CCL11 concentration in cell culture supernatants. This assay employed an antibody specific for human CCL11 coated on a 96-well plate. The wells were incubated with 50 μL standard or sample for 2.5 hours at room temperature. After washing with 1× wash solution five times, 200 μL of CCL11 conjugate were added into each wells for 1 h. After washing, 100 μL TMB One-Step Substrate Reagent were added into each wells at room temperature for 30 minutes. 50 μL of Stop Solution were added into each wells and read at 450 nm by spectrophotometer immediately. Limit of detection in the assay was 5 pg/mL.
# To investigate whether CMP influenced ECP-mediated CCL11 expression, Beas-2B cells were separately stimulated with 5 μM ECP in the absence of CMP and in the presence of 1 μM, 2.5 μM, 5 μM and 10 μM CMP at 37° C. for 24 h.
# To further investigate whether CMP influenced CCL11 production from other stimulation in Beas-2B cells, serum-deprived Beas-2B cells were stimulated with 10 ng/mL IL-4, a dominant cytokine regulating CCL11, alone or in the presence of CMP at concentrations 1, 2.5, 5 and 10 μM at 37° C. for 24 h.
# IL-13 = test: Cytokine ELISA of lung protein extract (IL-13); assay type: in vivo, BALB/c mouse; settings: eIN+mIT, mIT+eIN and eIN+mIT+eIN groups
# Text: FIG. 4 illustrates experimental design. All groups except control group were immunized with mite crude extract allergen on days 1 and 8, then mite crude extract allergen intratracheally on day 15 in all mite treated group, BALB/c mouse were divided into six groups (1) control group (PBS), (2) mites delivered intratracheally (mIT, mite on day 15) alone, (3) CMP intranasal (eIN, CMP on days 1 to 22) alone, (4) preventive-treatment group (eIN+mIT, CMP on days 1 to 14, mite on day 15) (5) therapy-treatment group (mIT+eIN, mite on day 15, CMP on days 15 to 22), and (6) preventive- and therapeutic-treatment group (eIN+mIT+eIN, CMP on days 1 to 22, mite on day 15).
# FIG. 9 illustrates inhibitory effect of CMP on lung protein extract. Lung protein extracts from different groups of mouse were assayed for the indicated cytokines. Data represent one of three independent experiments. Levels of CCL-11, IL-5, IL-13 and IL-17A/F levels in lung protein extracts from mouse from treatment groups were measured by Enzyme-linked immunosorbent assay (ELISA). Each result was expressed as the mean±S.D., n=4. **, P<0.01, ***, P<0.001. […]
# Levels of cytokines from lung protein extract were measured by ELISA. […] The microplates were read at 450 nm with an ELISA reader (Thermo Labsystems, Waltham, Mass., USA). […]
sequence,measurement,setting,value
NYRWRCKNQN (CMP),"release of CCL11 induced by IL-4, reduced to",human CCL11; 10 ng/mL IL-4 with 5 μM CMP,48.1 pg/mL
same,"release of CCL11 induced by IL-4, reduced to",human CCL11; 10 ng/mL IL-4 with 10 μM CMP,30.2 pg/mL
same,CCL11 production induced by IL-4,human CCL11; 10 ng/mL IL-4 with 1 or 2.5 μM CMP,did not reduce
same,"CCL11 induced by ECP, reduced to",human CCL11; 5 μM ECP and 5 μM CMP,7.55 pg/mL
same,"CCL11 induced by ECP, reduced to",human CCL11; 5 μM ECP and 10 μM CMP,8.94 pg/mL
same,ECP-mediated CCL11 production,human CCL11; 5 μM ECP and 1 or 2.5 μM CMP,did not reduce
same,IL-13 in lung protein extract compared with mIT group,IL-13,lower concentrations
